Paper PMC11945486, “TAS1R2/TAS1R3 Single-Nucleotide Polymorphisms Affect Sweet Taste Receptor Activation by Sweeteners: The SWEET Project” (Nutrients, 2025)

Target: T1, human TAS1R2-R838K (subunit alone) (Homo sapiens, UniProt Q8TE23, R838K)
T1 construct: expressed in transfected cells; host or cells: HEK293T stably expressing Gα16gust44
T1 sequence (Q8TE23 20-839 R838K): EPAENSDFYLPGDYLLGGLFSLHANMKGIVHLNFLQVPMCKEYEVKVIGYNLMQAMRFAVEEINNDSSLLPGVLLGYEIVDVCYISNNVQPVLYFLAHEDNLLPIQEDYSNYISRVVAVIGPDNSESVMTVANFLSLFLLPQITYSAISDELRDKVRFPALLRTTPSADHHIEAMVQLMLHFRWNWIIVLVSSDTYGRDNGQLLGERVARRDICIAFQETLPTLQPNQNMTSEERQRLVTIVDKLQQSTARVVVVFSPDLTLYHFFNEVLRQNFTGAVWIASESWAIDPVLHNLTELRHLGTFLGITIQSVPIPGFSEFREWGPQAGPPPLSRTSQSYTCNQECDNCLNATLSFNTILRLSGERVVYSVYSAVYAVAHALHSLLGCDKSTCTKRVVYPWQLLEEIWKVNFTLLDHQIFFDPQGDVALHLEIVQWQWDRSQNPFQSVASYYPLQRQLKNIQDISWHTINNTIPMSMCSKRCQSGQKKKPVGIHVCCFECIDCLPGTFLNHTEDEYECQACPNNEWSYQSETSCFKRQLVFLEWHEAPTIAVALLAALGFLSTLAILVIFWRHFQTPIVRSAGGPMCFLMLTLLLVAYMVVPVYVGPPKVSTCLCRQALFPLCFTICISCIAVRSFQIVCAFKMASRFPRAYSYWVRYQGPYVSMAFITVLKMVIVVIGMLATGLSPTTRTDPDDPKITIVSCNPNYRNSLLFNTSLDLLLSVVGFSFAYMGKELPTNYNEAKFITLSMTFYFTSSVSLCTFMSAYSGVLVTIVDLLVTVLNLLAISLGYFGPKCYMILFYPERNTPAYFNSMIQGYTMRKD
Experiment: Calcium mobilisation assay, TAS1R2-R838K subunit alone
Type: cell-based
Description: The coding sequences for TAS1R2 and TAS1R3 were commercially synthesised, and the human codon was optimised for expression in human cells. The coding sequences of human TAS1R2 and TAS1R3 were subcloned and inserted into the mammalian expression vectors pcDNA6/myc-HisA and pcDNA4/myc-HisA (Invitrogen; Thermo Fisher Scientific; Illkirch, France) between the EcoRI and NotI restriction sites, generating the plasmids pcDNA6-TAS1R2 and pcDNA4-TAS1R3, respectively. To increase protein expression in mammalian cells, an upstream start codon was used, which was a sequence called MAX, corresponding to the QBI SP163 element also described in pcDNA4-HisMax (Invitrogen; Thermo Fisher Scientific; Illkirch, France). To measure the expression level of the receptor by immunohistochemistry, we used the FLAG sequence ([…]) in the C-terminal position, which encodes the FLAG tag epitope. […]
The HEK293T cells were kindly provided by Jay P. Slack (Givaudan Flavors Corporation; Cincinnati, OH, USA). […] The fluorescence intensity was measured for 90 s (excitation 488 nm, emission 510 nm) in an automated fluorometric FlexStation®3 Multi-Mode microplate reader (Molecular Devices; San Jose, CA, USA). […] The Ca^2+ changes were expressed as fractional changes in fluorescent light intensity: ΔF/F = (F − F0)/F0, where F was the fluorescent light intensity at each point, and F0 was the value of emitted fluorescent light prior to stimulus application. To calculate dose–response relationships, the changes in fluorescence upon stimulus application were averaged, mock-subtracted and baseline-corrected. […] The half-maximal effective concentrations (EC50 values) and maximal signal amplitudes were calculated using SigmaPlot software (version 15.0) (Systat Software; San Jose, CA, USA).
For in vitro calcium mobilisation assay performed on hTAS1R2-SNPs, hTAS1R3-SNPs and mTAS1R3-I60T, 6 to 7 concentrations were tested for each sweet compound, plus buffer alone. All concentration–receptor combinations were measured in duplicate, and each experiment was repeated at least 4 times (8 wells/concentration). […]

EC50: 92.4 ± 19.7 µM | R1 = Variant EC50/WT EC50: 1.0 | Max ΔF/F0 (maximal signal amplitude): 0.35 ± 0.03
SMILES: C=C(C)[C@@H]1CC=C(/C=N/O)CC1 [Perillartine, perillartine]
